# Reference: patent US20260144788A1, “COMPOUND FOR SHP2 PROTEIN DEGRADATION AND MEDICAL USES THEREOF” (UBIX THERAPEUTICS, INC., priority 2022, published 2026)
# Biological target: T1, SHP2 protein (Homo sapiens, UniProt Q06124)
# T1 sequence (Q06124 1-593): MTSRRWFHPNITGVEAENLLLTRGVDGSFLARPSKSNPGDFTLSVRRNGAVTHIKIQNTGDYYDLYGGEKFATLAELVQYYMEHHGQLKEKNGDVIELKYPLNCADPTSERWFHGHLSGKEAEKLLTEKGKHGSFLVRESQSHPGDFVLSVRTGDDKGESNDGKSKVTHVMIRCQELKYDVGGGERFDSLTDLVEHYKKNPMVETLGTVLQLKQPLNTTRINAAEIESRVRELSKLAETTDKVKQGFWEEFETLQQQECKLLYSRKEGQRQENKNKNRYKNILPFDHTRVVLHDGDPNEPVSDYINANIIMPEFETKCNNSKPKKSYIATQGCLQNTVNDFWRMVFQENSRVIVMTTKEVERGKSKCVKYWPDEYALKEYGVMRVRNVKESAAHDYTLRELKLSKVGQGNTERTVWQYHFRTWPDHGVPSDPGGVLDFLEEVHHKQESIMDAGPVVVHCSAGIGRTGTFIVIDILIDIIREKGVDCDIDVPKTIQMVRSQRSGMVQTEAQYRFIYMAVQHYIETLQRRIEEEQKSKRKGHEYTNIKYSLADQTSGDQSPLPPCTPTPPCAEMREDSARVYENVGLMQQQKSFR
# Assay: Measurement of SHP2 protein degradation in NCI-H358 cells (western blotting)
# Format: cell-based
# Set-up: endogenous in cells; host or cells: NCI-H358
# Details: harvested after 24 hours
# Protocol: H358 cells were treated with the synthesized Example compounds, and the amount of SHP2 protein present in the cells was measured using western blotting detection. The protocol for the experiment using H358 cells is as follows.
# [Culture]H358 cells were resuspended in RPMI1640 with 25 mM HEPES (Hyclone, SH30255.01), 10% FBS (Hyclone, SV30207.02), 1% Penicillin-streptomycin (Welgene, LS 202-02) media, seeded at 3×10^5/mL in 12-well plates (1 mL each), and cultured for 24 hours.
# [Compound treatment] Before compound treatment, the media was changed to 1 mL media, and then the 12-well plate was treated as follows. The 10 mM stock dissolved in DMSO was serially diluted 1/100 or 1/10 with the media, and the compound was treated to the cells at a final concentration of 0.001, 0.01, and 0.1 μM, and harvested after 24 hours. For the negative control group, DMSO diluted 1/1000 in the media was added (1 μL DMSO+999 μL media).
# [Harvest]24 hours after compound treatment, each well was scraped with a cell lifter (SPL, 90040), pipetted with a 1 mL pipette, collected in a 1.5 mL microtube, and centrifuged (500 g, 5 min, 4° C.). The supernatant was removed, washed with PBS, and centrifuged again (500 g, 5 min, 4° C.). Afterwards, the supernatant was removed to prepare a pellet.
# [Cell lysis and sample preparation] Lysis buffer was prepared as follows. RIPA buffer (Biosesang, RC2038-050-00)+0.5 mM PMSF (SIGMA, P7626)+1× Protease/Phosphatase Inhibitor (Cell signaling, 5872S) were added at 30 μL per tube, vortexed, and incubated on ice for 30 minutes. Afterwards, sonication was performed (10 sec pulse, 30 sec rest, 5 cycles, 70% amplification) and centrifugation was performed (15,000 g, 15 min, 4° C.), and only the supernatant was transferred to a microtube. A 96-well plate was diluted to 1/4 with 7.5 μL of RIPA buffer and 2.5 μL of sample, and 200 μL each was added after mixing A and B of the BCA Protein Assay Kit (iNtRON, 21071) in a ratio of 50:1. The plate was incubated at 37° C. for 30 minutes and left at room temperature for 10 minutes. After shaking for 10 seconds with a SYNERGY H1 microplate reader from BioTek, the absorbance was measured at 562 nm. The protein was quantified using the measured value to make a sample, which was then incubated at 70° C. for 10 minutes. The sample buffer used here was a mixture of NuPAGE or Bolt 4× sample buffer (Invitrogen) and each 10× sample reducing agent depending on the gel to be used, and RIPA buffer was used for protein dilution.
# [Western blotting detection] Equal amounts of samples were loaded onto NuPAGE or Bolt Bis-tris 4-12% gradient gel and run (200 V, 35 min). This was transferred to […] NC membrane using Trans-blot Turbo (BIO-RAD) (1.3 A constant, 25 V limit, 15 min), and blocked with 5% skim milk/0.2% TBST for 45 min at room temperature. Anti-SHPTP2 Mouse (1:1,000 in 5% skim milk/0.2% TBST, size: 70 kDa, Santa cruz sc-7384) and Anti-GAPDH Rabbit (1:2,000 in 5% skim milk or 5% BSA/0.2% TBST, size: 37 kDa, CST #2118) were added and incubated overnight at 4° C. After washing three times with 0.2% TBST washing buffer for 5 minutes each, secondary antibodies Anti-Mouse IgG (1:5,000 in 5% skim milk/0.2% TBST, CST) and IRDye® 680RD Goat anti-Rabbit IgG Secondary Antibody (1:10,000 in 5% skim milk/0.2% TBST, LI-COR 926-68071) were added, and incubated on a rocker at room temperature for 45 minutes. The resultants were washed five times with 0.2% TBST washing buffer for 5 minutes each, and detected using LI-COR's Odyssey. GAPDH was detected with a 700 nm channel, and SHPTP2 was detected using SuperSignal West Pico PLUS Chemiluminescent Substrate.
SHP2% degradation (0.01 μM) [%],SHP2% degradation (0.1 μM) [%],SMILES
53.0,99.0,"Cc1ncsc1-c1ccc(CNC(=O)[C@@H]2C[C@@H](O)CN2C(=O)[C@@H](NC(=O)C2(F)CC2)C(C)(C)C)c(OC2CCN(C(=O)C3CN(c4nccc(Sc5cnc(N6CCC(C)(CN)CC6)cn5)c4Cl)C3)CC2)c1 [Example 63, (2S,4R)—N-(2-((1-(1-(4-((5-(4-(aminomethyl)-4-methylpiperidin-1-yl)pyrazin-2-yl)thio)-3-chloropyridin-2-yl)azetidine-3-carbonyl)piperidin-4-yl)oxy)-4-(4-methylthiazol-5-yl)benzyl)-1-((S)-2-(1-fluorocyclopropane-1-carboxamido)-3,3-dimethylbutanoyl)-4-hydroxypyrrolidine-2-carboxamide]"
87.9,99.8,"Cc1ncsc1-c1ccc(CNC(=O)[C@@H]2C[C@@H](O)CN2C(=O)[C@@H](NC(=O)C2(F)CC2)C(C)(C)C)c(OC2CCN(C(=O)CC3CN(c4nccc(Sc5cnc(N6CCC(C)(CN)CC6)cn5)c4Cl)C3)CC2)c1 [Example 64, (2S,4R)—N-(2-((1-(2-(1-(4-((5-(4-(aminomethyl)-4-methylpiperidin-1-yl)pyrazin-2-yl)thio)-3-chloropyridin-2-yl)azetidin-3-yl)acetyl)piperidin-4-yl)oxy)-4-(4-methylthiazol-5-yl)benzyl)-1-((S)-2-(1-fluorocyclopropane-1-carboxamido)-3,3-dimethylbutanoyl)-4-hydroxypyrrolidine-2-carboxamide]"
94.5,96.9,"Cc1ncsc1-c1ccc(CNC(=O)[C@@H]2C[C@@H](O)CN2C(=O)[C@@H](NC(=O)C2(F)CC2)C(C)(C)C)c(OC2CCN(C(=O)C3CCN(c4nccc(Sc5cnc(N6CCC7(CC6)CO[C@@H](C)[C@H]7N)cn5)c4Cl)CC3)CC2)c1 [Example 67, (2S,4R)—N-(2-((1-(1-(4-((5-((3S,4S)-4-amino-3-methyl-2-oxa-8-azaspiro[4.5]decan-8-yl)pyrazin-2-yl)thio)-3-chloropyridin-2-yl)piperidine-4-carbonyl)piperidin-4-yl)oxy)-4-(4-methylthiazol-5-yl)benzyl)-1-((S)-2-(1-fluorocyclopropane-1-carboxamido)-3,3-dimethylbutanoyl)-4-hydroxypyrrolidine-2-carboxamide]"
90.0,98.7,"CC(=O)N[C@H](C(=O)N1C[C@H](O)C[C@H]1C(=O)NCc1ccc(-c2scnc2C)cc1OC1CCN(C(=O)C2CCN(c3nccc(Sc4cnc(N5CCC(C)(N)CC5)cn4)c3Cl)CC2)CC1)C(C)(C)C [Example 76, (2S,4R)-1-((S)-2-acetamido-3,3-dimethylbutanoyl)-N-(2-((1-(1-(4-((5-(4-amino-4-methylpiperidin-1-yl)pyrazin-2-yl)thio)-3-chloropyridin-2-yl)piperidine-4-carbonyl)piperidin-4-yl)oxy)-4-(4-methylthiazol-5-yl)benzyl)-4-hydroxypyrrolidine-2-carboxamide]"

# The remaining lines, values behind:
SMILES,SHP2% degradation (0.01 μM) [%],SHP2% degradation (0.1 μM) [%]
"CC(=O)N[C@H](C(=O)N1C[C@H](O)C[C@H]1C(=O)NCc1ccc(-c2scnc2C)cc1O[C@H]1CC[C@H](C(=O)N2CCC(Nc3nccc(Sc4cnc(N5CCC(C)(CN)CC5)c(CO)n4)c3Cl)CC2)CC1)C(C)(C)C [Example 45, (2S,4R)-1-((S)-2-acetamido-3,3-dimethylbutanoyl)-N-(2-(((1r,4S)-4-(4-((4-((5-(4-(aminomethyl)-4-methylpiperidin-1-yl)-6-(hydroxymethyl)pyrazin-2-yl)thio)-3-chloropyridin-2-yl)amino)piperidine-1-carbonyl)cyclohexyl)oxy)-4-(4-methylthiazol-5-yl)benzyl)-4-hydroxypyrrolidine-2-carboxamide]",97.0,99.4
"CC(=O)N[C@H](C(=O)N1C[C@H](O)C[C@H]1C(=O)NCc1ccc(-c2scnc2C)cc1O[C@H]1CC[C@H](C(=O)N2CCC(c3cccc(Sc4cnc(N5CCC(C)(CN)CC5)cn4)c3Cl)CC2)CC1)C(C)(C)C [Example 46, (2S,4R)-1-((S)-2-acetamido-3,3-dimethylbutanoyl)-N-(2-(((1r,4S)-4-(4-(3-((5-(4-(aminomethyl)-4-methylpiperidin-1-yl)pyrazin-2-yl)thio)-2-chlorophenyl)piperidine-1-carbonyl)cyclohexyl)oxy)-4-(4-methylthiazol-5-yl)benzyl)-4-hydroxypyrrolidine-2-carboxamide]",33.8,93.2
"CC(=O)N[C@H](C(=O)N1C[C@H](O)C[C@H]1C(=O)NCc1ccc(-c2scnc2C)cc1O[C@H]1CC[C@H](C(=O)N2CCC(c3nccc(Sc4cnc(N5CCC(C)(CN)CC5)cn4)c3Cl)CC2)CC1)C(C)(C)C [Example 47, (2S,4R)-1-((S)-2-acetamido-3,3-dimethylbutanoyl)-N-(2-(((1r,4S)-4-(4-(4-((5-(4-(aminomethyl)-4-methylpiperidin-1-yl)pyrazin-2-yl)thio)-3-chloropyridin-2-yl)piperidine-1-carbonyl)cyclohexyl)oxy)-4-(4-methylthiazol-5-yl)benzyl)-4-hydroxypyrrolidine-2-carboxamide]",−34.6,50.6
"CC(=O)N[C@H](C(=O)N1C[C@H](O)C[C@H]1C(=O)N[C@@H](C)c1ccc(-c2scnc2C)cc1O[C@H]1CC[C@H](C(=O)N2CC(Nc3cccc(Sc4cnc(N5CCC(C)(CN)CC5)cn4)c3Cl)C2)CC1)C(C)(C)C [Example 48, (2S,4R)-1-((S)-2-acetamido-3,3-dimethylbutanoyl)-N—((S)-1-(2-(((1R,4S)-4-(3-((3-((5-(4-(aminomethyl)-4-methylpiperidin-1-yl)pyrazin-2-yl)thio)-2-chlorophenyl)amino)azetidine-1-carbonyl)cyclohexyl)oxy)-4-(4-methylthiazol-5-yl)phenyl)ethyl)-4-hydroxypyrrolidine-2-carboxamide]",88.8,98.3
"CC(=O)N[C@H](C(=O)N1C[C@H](O)C[C@H]1C(=O)N[C@@H](C)c1ccc(-c2scnc2C)cc1O[C@H]1CC[C@H](C(=O)N2CC(Nc3nccc(Sc4cnc(N5CCC(C)(CN)CC5)cn4)c3Cl)C2)CC1)C(C)(C)C [Example 49, (2S,4R)-1-((S)-2-acetamido-3,3-dimethylbutanoyl)-N—((S)-1-(2-(((1R,4S)-4-(3-((4-((5-(4-(aminomethyl)-4-methylpiperidin-1-yl)pyrazin-2-yl)thio)-3-chloropyridin-2-yl)amino)azetidine-1-carbonyl)cyclohexyl)oxy)-4-(4-methylthiazol-5-yl)phenyl)ethyl)-4-hydroxypyrrolidine-2-carboxamide]",87.1,99.4
